Measured values from patent publication US20030069194A1, “Inhibition of viral replication by targeting RNA-DNA complexes” (priority 2001, published 2003).
Where a name gives a salt, the structure may show the parent alone.

What was measured:
[1] = tested on: 18C-18R duplex (RNase H substrate of HIV-1 RT); assay: RT-induced RNase H cleavage of the 18C-18R duplex (gel assay); type: biochemical; settings: 18C-18R duplex; aminoglycosides 312.5 μM; FIG. 1b, 1d
From the text: The first model oligonucleotide was a 18mer chimeric duplex (18C-18R). 18C-18R mimics a RNase H substrate during minus-strand strong-stop synthesis. (FIG. 1a). Mueller, U. et al. Crystal structure of an eight-base pair duplex containing the 3′-DNA RNA-5′ junction formed during initiation of minus-strand synthesis of HIV replication, Biochemistry 37,12005-12011 (1998). […] Note that RT cleaves the RNA strand (18R) opposite the chimeric RNA-DNA strand (18C) at three sites (FIGS. 1a, b). The primary cleavage site lies between base positions +1 and +2 (counting from the RNA-DNA junction in the 5′ direction on the cleaved RNA strand). Two other minor cleavage sites lie between positions +3 and +4 and between positions −1 and +1, with the former site being cleaved to a greater extent than the latter site. Götte, M. et al., HIV-1 Reverse transcriptase-associated RNase H cleaves RNA/RNA in arrested complexes: Implications for the mechanism by which RNase H discriminates between RNA/RNA and RNA/DNA, EMBO J. 14, 833-841 (1995).
(§1) Recombinant HIV-1 RT p66 was isolated from Escherichia coli JM 109. Pandey, V. N. et al, Role of methionine 184 of human immunodeficiency virus type-1 reverse transcriptase in the polymerase function and fidelity of DNA synthesis, Biochemistry 35, 2168-2179 (1996). The 18C and 18R oligonucleotides were purchased from Dharmacon Research, Inc. (Lafayette, Colo.). The 18D oligonucleotide was obtained from Integrated DNA Technologies, Inc. (Coralville, Iowa). Neomycin trisulfate trihydrate, the free base of tobramycin, paromomycin sulfate, and kanamycin B sulfate were obtained from Fluka, while kanamycin A monosulfate and ribostamycin sulfate dihydrate were obtained from Sigma.
(§2) The RNase H activity of RT was assayed in a 10 μl reaction mixture containing 10 mM PIPES (pH 6.0) and 5 mM MgCl2. Ten pmol of either 18C or 18R were ^32P-labeled at the 5′ end using T4 polynucleotide kinase. For the cleavage experiments, different aminoglycosides were mixed with 0.5 μM of target duplex. A small amount of RT, 0.1 μg, was then added to initiate the cleavage reaction. After incubation at 37° C. for 30 min, the reaction was stopped by addition of 3 M urea containing a mixture of bromophenol blue and xylene cyanol. Denaturation of the 18C-18R duplex required the addition of 5 M urea as well as heating at 95° C. for 5 min prior to gel loading. The cleavage products were resolved in a 10% polyacrylamide gel containing 8 M urea. The gels were subsequently analyzed using a phosphoimager (Molecular Dynamics, Inc.).

[2] = tested on: 18C-18D duplex (RNase H substrate of HIV-1 RT); assay: RT-induced RNase H cleavage of the 18C-18D duplex (gel assay); type: biochemical; settings: 18C-18D duplex; aminoglycosides 2.0 mM; FIG. 2b, 2c
From the text: The second model oligonucleotide was a 18mer chimeric duplex (18C-18D). 18C-18D mimics a RNase H substrate during plus-strand strong-stop synthesis (FIG. 2a), which occurs following minus-strand DNA synthesis. Fedoroff, O. Y., et. al., B. R. Structural variation among retroviral primer-DNA junctions: Solution structure of the HIV-1 (−)-strand Okazaki fragment r(gcca)d(CTGC)-d(GCAGTGGC), Biochemistry 35,11070-11080 (1996). For the 18C-18D duplex, RT cleaves the RNA portion of the chimeric strand (18C) opposite the DNA strand (18D) at only a single site (FIGS. 2a, b), in marked contrast to the three cleavage sites observed in the 18C-18Rduplex. This unique cleavage site lies between base positions +1 and +2 (counting from the RNA-DNA junction in the 5′ direction on the cleaved chimeric strand). Furfine, E. S. & Reardon, J. E., Human immunodeficiency virus reverse transcriptase ribonuclease H: Specificity of tRNA(Lys3)-primer excision, Biochemistry 30, 7041-7046 (1991); Smith, J. S. & Roth, M. J. Specificity of human immunodeficiency virus-1 reverse transcriptase-associated ribonuclease H in removal of the minus-strand primer tRNA(Lys3), J. Biol. Chem. 267, 15071-15079 (1992). […] As noted above for the 18C-18R duplex, this hierarchy of cleavage inhibition correlates with the relative binding affinities of the three ligands for the 18C-18D duplex.
as §1
as §2, with “containing 110” for “containing 10”
To determine the nature of the aminoglycoside-induced inhibition of RT-catalyzed RNase H cleavage, the impact of RT concentration on neomycin-induced inhibition was examined. […] In the presence of 1 mM neomycin, increasing the concentrations of RT overcomes the RNase H inhibitory effect of the drug.

Row | SMILES | hierarchy of the extent of inhibition of RT-induced cleavage [1] | hierarchy of inhibition of RT-induced cleavage [2]
1 | NC[C@H]1O[C@H](O[C@H]2[C@H](O)[C@@H](O[C@H]3O[C@H](CO)[C@@H](O)[C@H](N)[C@H]3O)[C@H](N)C[C@@H]2N)[C@H](N)[C@@H](O)[C@@H]1O.O=S(=O)(O)O [kanamycin B, kanamycin B sulfate] | neomycin>paromomycin>tobramycin>kanamycin B>ribostamycin>>kanamycin A | –
2 | NC[C@H]1O[C@H](O[C@H]2[C@H](O)[C@@H](O[C@H]3O[C@H](CO)[C@@H](O)[C@H](N)[C@H]3O)[C@H](N)C[C@@H]2N)[C@H](O)[C@@H](O)[C@@H]1O.O=S(=O)(O)O [kanamycin A, kanamycin A monosulfate] | neomycin>paromomycin>tobramycin>kanamycin B>ribostamycin>>kanamycin A | –
3 | NC[C@H]1O[C@H](O[C@H]2[C@H](O)[C@@H](O[C@H]3O[C@H](CO)[C@@H](O)[C@H](N)[C@H]3O)[C@H](N)C[C@@H]2N)[C@H](N)C[C@@H]1O [tobramycin] | neomycin>paromomycin>tobramycin>kanamycin B>ribostamycin>>kanamycin A | –
4 | NC[C@H]1O[C@H](O[C@H]2[C@H](O[C@@H]3O[C@H](CO)[C@@H](O)[C@H]3O)[C@@H](O)[C@H](N)C[C@@H]2N)[C@H](N)[C@@H](O)[C@@H]1O [ribostamycin, ribostamycin sulfate dihydrate] | neomycin>paromomycin>tobramycin>kanamycin B>ribostamycin>>kanamycin A | neomycin>paromomycin>ribostamycin
